Experimental data from ChEMBL document CHEMBL1135648, “Synthesis and evaluation of no-carrier-added 8-cyclopentyl-3-(3-[(18)F]fluoropropyl)-1-propylxanthine ([(18)F]CPFPX): a potent and selective A(1)-adenosine receptor antagonist for in vivo imaging” (J Med Chem, 2002).

Tests used:
Mus musculus [1] = test: In vivo biodistribution in NMRI (Naval Medical Research Institute) mice bone at the dose of 0.15-0.2 nmol at 2 min; assay type: ADME, organism-based, Bone element
Mus musculus [2] = test: In vivo biodistribution in NMRI (Naval Medical Research Institute) mice bone at the dose of 0.15-0.2 nmol at 40 min; assay type: ADME, organism-based, Bone element
Mus musculus [3] = test: In vivo biodistribution in NMRI (Naval Medical Research Institute) mice bone at the dose of 0.15-0.2 nmol at 5 min; assay type: ADME, organism-based, Bone element
Mus musculus [4] = test: In vivo biodistribution in NMRI (Naval Medical Research Institute) mice bone at the dose of 0.15-0.2 nmol at 60 min; assay type: ADME, organism-based, Bone element; details: 1 h
Mus musculus [5] = test: In vivo biodistribution in NMRI (Naval Medical Research Institute) mice brain at the dose of 0.15-0.2 nmol at 10 min; assay type: ADME, organism-based
Mus musculus [6] = test: In vivo biodistribution in NMRI (Naval Medical Research Institute) mice brain at the dose of 0.15-0.2 nmol at 20 min; assay type: ADME, organism-based
Mus musculus [7] = test: In vivo biodistribution in NMRI (Naval Medical Research Institute) mice brain at the dose of 0.15-0.2 nmol at 2 min; assay type: ADME, organism-based
Mus musculus [8] = test: In vivo biodistribution in NMRI (Naval Medical Research Institute) mice brain at the dose of 0.15-0.2 nmol at 40 min; assay type: ADME, organism-based
Mus musculus [9] = test: In vivo biodistribution in NMRI (Naval Medical Research Institute) mice brain at the dose of 0.15-0.2 nmol at 5 min; assay type: ADME, organism-based
Mus musculus [10] = test: In vivo biodistribution in NMRI (Naval Medical Research Institute) mice brain at the dose of 0.15-0.2 nmol at 60 min; assay type: ADME, organism-based; details: 1 h
Mus musculus [11] = test: In vivo biodistribution in NMRI (Naval Medical Research Institute) mice heart at the dose of 0.15-0.2 nmol at 10 min; assay type: ADME, organism-based
Mus musculus [12] = test: In vivo biodistribution in NMRI (Naval Medical Research Institute) mice heart at the dose of 0.15-0.2 nmol at 20 min; assay type: ADME, organism-based
Mus musculus [13] = test: In vivo biodistribution in NMRI (Naval Medical Research Institute) mice heart at the dose of 0.15-0.2 nmol at 2 min; assay type: ADME, organism-based
Mus musculus [14] = test: In vivo biodistribution in NMRI (Naval Medical Research Institute) mice heart at the dose of 0.15-0.2 nmol at 40 min; assay type: ADME, organism-based
Mus musculus [15] = test: In vivo biodistribution in NMRI (Naval Medical Research Institute) mice heart at the dose of 0.15-0.2 nmol at 5 min; assay type: ADME, organism-based
Mus musculus [16] = test: In vivo biodistribution in NMRI (Naval Medical Research Institute) mice heart at the dose of 0.15-0.2 nmol at 60 min; assay type: ADME, organism-based; details: 1 h
Mus musculus [17] = test: In vivo biodistribution in NMRI (Naval Medical Research Institute) mice intestine at the dose of 0.15-0.2 nmol at 10 min; assay type: ADME, organism-based
Mus musculus [18] = test: In vivo biodistribution in NMRI (Naval Medical Research Institute) mice intestine at the dose of 0.15-0.2 nmol at 20 min; assay type: ADME, organism-based
Mus musculus [19] = test: In vivo biodistribution in NMRI (Naval Medical Research Institute) mice intestine at the dose of 0.15-0.2 nmol at 2 min; assay type: ADME, organism-based
Mus musculus [20] = test: In vivo biodistribution in NMRI (Naval Medical Research Institute) mice intestine at the dose of 0.15-0.2 nmol at 40 min; assay type: ADME, organism-based
Mus musculus [21] = test: In vivo biodistribution in NMRI (Naval Medical Research Institute) mice intestine at the dose of 0.15-0.2 nmol at 5 min; assay type: ADME, organism-based
Mus musculus [22] = test: In vivo biodistribution in NMRI (Naval Medical Research Institute) mice intestine at the dose of 0.15-0.2 nmol at 60 min; assay type: ADME, organism-based; details: 1 h
Mus musculus [23] = test: In vivo biodistribution in NMRI (Naval Medical Research Institute) mice kidney at the dose of 0.15-0.2 nmol at 10 min; assay type: ADME, organism-based
Mus musculus [24] = test: In vivo biodistribution in NMRI (Naval Medical Research Institute) mice kidney at the dose of 0.15-0.2 nmol at 20 min; assay type: ADME, organism-based
Mus musculus [25] = test: In vivo biodistribution in NMRI (Naval Medical Research Institute) mice kidney at the dose of 0.15-0.2 nmol at 2 min; assay type: ADME, organism-based
Mus musculus [26] = test: In vivo biodistribution in NMRI (Naval Medical Research Institute) mice kidney at the dose of 0.15-0.2 nmol at 40 min; assay type: ADME, organism-based
Mus musculus [27] = test: In vivo biodistribution in NMRI (Naval Medical Research Institute) mice kidney at the dose of 0.15-0.2 nmol at 5 min; assay type: ADME, organism-based
Mus musculus [28] = test: In vivo biodistribution in NMRI (Naval Medical Research Institute) mice kidney at the dose of 0.15-0.2 nmol at 60 min; assay type: ADME, organism-based; details: 1 h
Mus musculus [29] = test: In vivo biodistribution in NMRI (Naval Medical Research Institute) mice blood at the dose of 0.15-0.2 nmol at 10 min; assay type: ADME, organism-based
Mus musculus [30] = test: In vivo biodistribution in NMRI (Naval Medical Research Institute) mice blood at the dose of 0.15-0.2 nmol at 20 min; assay type: ADME, organism-based
Mus musculus [31] = test: In vivo biodistribution in NMRI (Naval Medical Research Institute) mice blood at the dose of 0.15-0.2 nmol at 40 min; assay type: ADME, organism-based
Mus musculus [32] = test: In vivo biodistribution in NMRI (Naval Medical Research Institute) mice blood at the dose of 0.15-0.2 nmol at 5 min; assay type: ADME, organism-based

CCCn1c(=O)c2nc(C3CCCC3)[nH]c2n(CCC[18F])c1=O
ID/g (Mus musculus [1]): 0.37%
ID/g (Mus musculus [2]): 2.18%
ID/g (Mus musculus [3]): 1.4%
ID/g (Mus musculus [4]): 2.27%
ID/g (Mus musculus [5]): 2.44%
ID/g (Mus musculus [6]): 2.39%
ID/g (Mus musculus [7]): 2.45%
ID/g (Mus musculus [8]): 2.52%
ID/g (Mus musculus [9]): 2.37%
ID/g (Mus musculus [10]): 1.55%
ID/g (Mus musculus [11]): 3.83%
ID/g (Mus musculus [12]): 4.11%
ID/g (Mus musculus [13]): 4.64%
ID/g (Mus musculus [14]): 4.23%
ID/g (Mus musculus [15]): 3.71%
ID/g (Mus musculus [16]): 1.63%
ID/g (Mus musculus [17]): 3.08%
ID/g (Mus musculus [18]): 3.51%
ID/g (Mus musculus [19]): 2.07%
ID/g (Mus musculus [20]): 3.74%
ID/g (Mus musculus [21]): 2.21%
ID/g (Mus musculus [22]): 9.13%
ID/g (Mus musculus [23]): 6.1%
ID/g (Mus musculus [24]): 6.05%
ID/g (Mus musculus [25]): 4.68%
ID/g (Mus musculus [26]): 5.95%
ID/g (Mus musculus [27]): 3.81%
ID/g (Mus musculus [28]): 2.63%
ID/g (Mus musculus [29]): 5.21%
ID/g (Mus musculus [30]): 4.13%
ID/g (Mus musculus [31]): 3.92%
ID/g (Mus musculus [32]): 6.53%
